The target of experiment [1] is phosphodiesterase. Put plainly: Phosphodiesterase inhibition, cyclic AMP substrate. The experiment is classed as biochemical. The settings on record: 1 μM substrate; read-out: I50 Cyclic AMP. The protocol: (§1) The determination of the phosphodiesterase activity was carried out according to the method of Beretz et al. (Experientia, 34,1054,1977). The method consists in measuring (3H) products resulting from incubation of (3H)-c-AMP with the phosphodiesterase preparation and with an excess of […]. An anion exchange resin was used in a batch process to remove the residual substrate. The inibition of PDE by flavonoids was studied in experiments in which the concentration of c-AMP was held constant at 1 μM.
(§2) Assays were performed with 1 μM substrate, I50 was calculated as described above.

The target in experiment [2] is phosphodiesterase. Nature of the experiment: Phosphodiesterase inhibition, cyclic GMP substrate. The experiment is classed as biochemical. The settings on record: 1 μM substrate; read-out: I50 Cyclic GMP. On the procedure: as §1, §2
Experiment [3] deals with phosphodiesterase. The settings on record: stated as known; cited from earlier work.

Take `O=c1cc(-c2ccc(O)c(-c3c(O)cc(O)c4c(=O)cc(-c5ccc(O)cc5)oc34)c2)oc2cc(O)cc(O)c12` [Amentoflavone, amentoflavone]: the IC50 turned out to be 0.65 µM in experiment [1] and 0.58 µM in experiment [2]. Also, the inhibition of phosphodiesterase result in experiment [3] was “powerful inhibitor of phosphodiesterase”.

On to `O=C(O)c1cc(=O)c2c(OCC(O)COc3cccc4oc(C(=O)O)cc(=O)c34)cccc2o1` [Cromoglycate Na, reference compound], for which the IC50 in experiment [1] was 2000 µM; in experiment [2], 235 µM.

As to `COc1ccc(Cc2nccc3cc(OC)c(OC)cc23)cc1OC` [Papaverine, reference compound], the IC50 in experiment [1] turned out to be 5 µM; in experiment [2], 12.4 µM.

Consider ginkgonetine, for which the IC50 in experiment [1] came to 0.88 µM; in experiment [2] it was 0.49 µM.

These data come from patent US5376371A, “Compositions for treating fat deposits in humans” (Indena S.p.A., priority 1989, dated 1994).
